# In US20130183706A1, “Method for Culturing Adipocytes” (ASSISTANCE PUBLIQUE-HOPITAUX DE PARIS, priority 2010, published 2013):
# System: Akt phosphorylation in mature adipocytes
# Test: Measurement of insulin sensitivity (Ser473 Akt phosphorylation, immunoelectrophoresis)
# Format: cell-based, human
# Details: insulin 10 nM, 15 to 30 minutes; freshly isolated adipocytes (2D) and adipocytes kept 48 h in hydrogel (3D)
# Description: The mature adipocytes are isolated by collagenase treatment of human adipose tissue. The subcutaneous human adipose tissue of young women (<45 years) who are not obese (BMI<30) is cut up in digestion medium (DMEM, 2% essentially fatty acid free albumin (A6003, Sigma, St Louis, […]., USA), 1 mg/ml collagenase A (Roche Diagnostics, Mannheim, Germany)) in the proportion of 1 g of tissue per 2 ml of digestion medium in polypropylene tubes. The tubes are placed at 37° C. for […] with agitation (200 cycles/minute). After digestion, the medium is filtered through woven cotton gauze. The mature adipocytes are left to decant by floating for 5 minutes and are then washed 3 times with 5 volumes of 10% sucrose. At the end of the final wash, the sucrose is removed and the mature adipocytes are ready to be incorporated into the PuraMatrix™ hydrogel.
# The wells containing the hydrogel/adipocytes deprived of insulin the day before are incubated with the incubation medium (150 μl) (DMEM/F12 and 10 nM insulin). The plates are then placed in the incubator for 15 to 30 minutes. […] The signals are detected by chemiluminescence (Detection ECL, GE Healthcare) and quantified by densitometry.
substance,measurement,value
Insulin: major anabolic hormone,Akt phosphorylation (Ser473),stimulates
